In the assay the test system is human conjunctival tissue mast cells. As to the kind of experiment: Inhibition of anti-human IgE induced histamine release from human conjunctival tissue mast cells (HCTMC), histamine by RIA. To be noted: Mast cell, bracketed value, equals the mean of the four single determinations in the same cell, read-out: IC50 (nM), value in square brackets. The format is cell-based. On the procedure:
Methods detailing preparation of monodispersed HCTMC and mediator release studies with these cells have been described (U.S. Pat. No. 5,360,720 and Miller et al, Ocular Immunology and Inflammation, 4(1):39-49 (1996)). Briefly, human conjunctival tissue mast cells were isolated from post-mortem tissue donors obtained within 8 hours of death by various eye banks and transported in Dexsol® corneal preservation medium, or equivalent. Tissues were enzymatically digested by repeated exposure (30 min. at 37° C.) to collagenase and hyaluronidase (2× with 200 U each/gram tissue, then 2-4× with 2000 U each/gram tissue) in Tyrode's buffer containing 0.1% gelatin. (Tyrode's buffer (in mM): 137 NaCl, 2.7 KCl, 0.35 NaH2PO4, 1.8 CaCl2, 0.98 MgCl2, 11.9 NaHCO3, and 5.5 glucose). […]
Cells were harvested from the culture plate and counted for viability (trypan blue exclusion) and mast cell number (toluidine blue O). […] Supernatants were stored at −20° C. until analyzed for histamine content by RIA (Beckman Coulter, Chicago, Ill.). […]
Inhibition of histamine release was determined by direct comparison of with anti-IgE challenged mast cells using Dunnett's t-test (Dunnett, “A multiple comparison procedure for comparing treatments with a control”, J. Amer. Stat. Assoc. (1955), 50:1096-1121).

The term IC50 denotes the concentration needed to halve the response being measured. Regarding `C=CCNC(=O)Nc1ccccc1SSc1ccccc1NC(=O)NCC=C` [Compound 1], the IC50 is 194 nM.

The values above are taken from US6500864B1, “Disulfide derivatives useful for treating allergic diseases” (Alcon Universal Ltd., priority 2000, dated 2002).
